# Assay results as given in US10208059B2, “Heterocyclic modulators of HIF activity for treatment of disease” (Board of Regents, University of Texas System, priority 2012, dated 2019).
# System: 293T-HRE-GFP-luc cells
# Test: Cell-based reporter assay for IC50 determinations
# Conditions: hypoxia 6 hrs (1% O2), luminescence, read-out: IC50 Classification
# Method: Cell-Based Reporter Assay for IC50 Determinations
# 293T-HRE-GFP-luc cells were routinely maintained in DMEM media (high glucose version with GlutaMAX and HEPES, Gibco, catalog #10564) supplemented with 10% fetal bovine serum and 2 μg/mL puromycin (Invitrogen, catalog #A11138-03) using a humidified incubator (normoxia conditions consisting of 37° C., 5% CO2 and ambient O2).
# In preparation for the reporter assay, cells were harvested and resuspended in DMEM media (high glucose version with GlutaMAX and HEPES) supplemented with 10% fetal bovine serum. Cells were inoculated into 384-well white Culturplates (Perkin Elmer catalog #6007680) at a density of 12,000 cells/well in a volume of 30 μL. The microplates were incubated overnight (approximately 17-19 hours) at 37° C. with 5% CO2 and ambient O2. Stock solutions of the test compounds were prepared in DMSO (Sigma, Catalog #D2650) and serially diluted 1:3 using DMSO. Compounds were additionally diluted (1:50) with culturemedium and 10 μL were added per well to the Culturplate. Following a 30 min. incubation under normoxia conditions, the plates were incubated in hypoxia for 6 hrs. (37° C., 5% CO2 and 1% O2). Steadylite Plus (Perkin Elmer, catalog #6016751) was then added (40 μL/well), the plates were mixed on an orbital shaker at room temperature in the dark for 15 min., and luminescence was measured using an Envision plate reader (Perkin Elmer). IC50 values were calculated using a four-parameter logistic curve fit. Results are shown below in Table 2; ND indicates no data.
row,Compound,IC50
1,"COC(=O)CNS(=O)(=O)c1cccc(Cn2nc(-c3nc(-c4ccc(OC(F)(F)F)cc4)no3)nc2C)c1 [Example 134, methyl 2-{3-[(5-methyl-3-{3-[4-(trifluoromethoxy)phenyl]-1,2,4-oxadiazol-5-yl}-1H-1,2,4-triazol-1-yl)methyl]benzenesulfonamido}acetate]",< 100 nM
2,"Cc1nc(-c2nc(-c3ccc(OC(F)(F)F)cc3)no2)nn1Cc1ccnc(NCCN(C)C)c1 [Example 45, N1,N1-Dimethyl-N2-(4-((5-methyl-3-(3-(4-(trifluoromethoxy)phenyl)-1,2,4-oxadiazol-5-yl)-1H-1,2,4-triazol-1-yl)methyl)pyridin-2-yl)ethane-1,2-diamine]",1000 to 10000 nM
3,"Cc1cccc(Cn2nc(-c3nc(-c4ccc(OC(F)(F)F)cc4)no3)nc2C)n1 [Example 108, 5-(5-methyl-1-((6-methylpyridin-2-yl)methyl)-1H-1,2,4-triazol-3-yl)-3-(4-(trifluoromethoxy)phenyl)-1,2,4-oxadiazole]",1000 to 10000 nM
4,"Cc1nc(-c2ncc(-c3ccc(OC(F)(F)F)cc3)o2)nn1Cc1ccnc(N2CCOCC2)c1 [Example 93, 4-{4-[(5-methyl-3-{5-[4-(trifluoromethoxy)phenyl]-1,3-oxazol-2-yl}-1H-1,2,4-triazol-1-yl)methyl]pyridin-2-yl}morpholine]",100 to 1000 nM
5,"Cc1nc(-c2nc(-c3ccc(OC(F)(F)F)cc3)no2)nn1Cc1ccnc(OCCN(C)C)c1 [Example 143, dimethyl[2-({4-[(5-methyl-3-{3-[4-(trifluoromethoxy)phenyl]-1,2,4-oxadiazol-5-yl}-1H-1,2,4-triazol-1-yl)methyl]pyridin-2-yl}oxy)ethyl]amine]",100 to 1000 nM
6,"Cc1nc(-c2nc(-c3ccc(OC(F)(F)F)cc3)no2)nn1Cc1ccnc(OCCCO)c1 [Example 141, 3-({4-[(5-methyl-3-{3-[4-(trifluoromethoxy)phenyl]-1,2,4-oxadiazol-5-yl}-1H-1,2,4-triazol-1-yl)methyl]pyridin-2-yl}oxy)propan-1-ol]",< 100 nM
7,"Cc1nc(-c2nc(-c3ccc(OC(F)(F)F)cc3)no2)nn1Cc1cccc(C(N)=O)c1 [Example 118, 3-((5-methyl-3-(3-(4-(trifluoromethoxy)phenyl)-1,2,4-oxadiazol-5-yl)-1H-1,2,4-triazol-1-yl)methyl)benzamide]",< 100 nM
8,"Cc1nc(-c2nc(-c3ccc(OC(F)(F)F)cc3)no2)nn1Cc1cccc(C(=O)NC(C)(C)CO)c1 [Example 125, N-(1-hydroxy-2-methylpropan-2-yl)-3-[(5-methyl-3-{3-[4-(trifluoromethoxy)phenyl]-1,2,4-oxadiazol-5-yl}-1H-1,2,4-triazol-1-yl)methyl]benzamide]",< 100 nM
9,"Cc1nc(-c2nc(-c3ccc(OC(F)(F)F)cc3)no2)nn1Cc1cccc(S(=O)(=O)N2CCN(C)CC2)c1 [Example 79, 1-Methyl-4-{3-[(5-methyl-3-{3-[4-(trifluoromethoxy)phenyl]-1,2,4-oxadiazol-5-yl}-1H-1,2,4-triazol-1-yl)methyl]benzenesulfonyl}piperazine]",< 100 nM
10,"Cc1nc(-c2nc(-c3ccc(OC(F)(F)F)cc3)no2)nn1Cc1cccc(OCCNC(=O)OC(C)(C)C)c1 [Example 67, Tert-butyl N-(2-{3-[(5-methyl-3-{3-[4-(trifluoromethoxy)phenyl]-1,2,4-oxadiazol-5-yl}-1H-1,2,4-triazol-1-yl)methyl]phenoxy}ethyl)carbamate]",< 100 nM
11,"Cc1nc(-c2nc(-c3ccc(OC(F)(F)F)cc3)no2)nn1Cc1ccnc(N2CCC(S(C)(=O)=O)CC2)c1 [Example 146, 2-(4-methanesulfonylpiperidin-1-yl)-4-[(5-methyl-3-{3-[4-(trifluoromethoxy)phenyl]-1,2,4-oxadiazol-5-yl}-1H-1,2,4-triazol-1-yl)methyl]pyridine]",< 100 nM
12,"CCOc1cccc(Cn2nc(-c3nc(-c4ccc(OC(F)(F)F)cc4)no3)nc2C)c1 [Example 64, 5-{1-[(3-Ethoxyphenyl)methyl]-5-methyl-1H-1,2,4-triazol-3-yl}-3-[4-(trifluoromethoxy)phenyl]-1,2,4-oxadiazole]",< 100 nM
13,"Cc1nc(-c2nc(-c3ccc(OC(F)(F)F)cc3)no2)nn1Cc1ccc(=O)n(CC(C)C)c1 [Example 77a, 5-[(5-Methyl-3-{3-[4-(trifluoromethoxy)phenyl]-1,2,4-oxadiazol-5-yl}-1H-1,2,4-triazol-1-yl)methyl]-1-(2-methylpropyl)-1,2-dihydropyridin-2-one]",< 100 nM
14,"Cc1nc(-c2nc(-c3ccc(OC(F)(F)F)cc3)no2)nn1Cc1cccc(S(=O)(=O)NC2CC2)c1 [Example 130, N-cyclopropyl-3-[(5-methyl-3-{3-[4-(trifluoromethoxy)phenyl]-1,2,4-oxadiazol-5-yl}-1H-1,2,4-triazol-1-yl)methyl]benzene-1-sulfonamide]",< 100 nM
15,"Cc1nc(-c2nc(-c3ccc(OC(F)(F)F)cc3)cs2)nn1Cc1cccc(S(C)(=O)=O)c1 [Example 88, 1-[(3-Methanesulfonylphenyl)methyl]-5-methyl-3-{4-[4-(trifluoromethoxy)phenyl]-1,3-thiazol-2-yl}-1H-1,2,4-triazole]",100 to 1000 nM
16,"Cc1nc(-c2cc(-c3ccc(OC(F)(F)F)cc3)no2)nn1Cc1cccc(N2CCC(S(C)(=O)=O)CC2)c1 [Example 94, 5-(5-Methyl-1-(3-(4-(methylsulfonyl)piperidin-1-yl)benzyl)-1H-1,2,4-triazol-3-yl)-3-(4-(trifluoromethoxy)phenyl)isoxazole]",< 100 nM
17,"Cc1nc(-c2nc(-c3ccc(OC(F)(F)F)cc3)no2)nn1Cc1cccc(OCC(O)CO)c1 (stereo not shown) [Example 86, 3-{3-[(5-methyl-3-{3-[4-(trifluoromethoxy)phenyl]-1,2,4-oxadiazol-5-yl}-1H-1,2,4-triazol-1-yl)methyl]phenoxy}propane-1,2-diol]",< 100 nM
18,"Cc1nc(-c2nc(-c3ccc(OC(F)(F)F)cc3)no2)nn1Cc1cc(=O)n2ccsc2n1 [Example 49, 7-((5-Methyl-3-(3-(4-(trifluoromethoxy)phenyl)-1,2,4-oxadiazol-5-yl)-1H-1,2,4-triazol-1-yl)methyl)-5H-thiazolo[3,2-a]pyrimidin-5-one]",100 to 1000 nM
19,"Cc1nc(-c2nc(-c3ccc(OC(F)(F)F)cc3)no2)nn1Cc1cccc(OC2COC2)c1 [Example 68, 5-(5-Methyl-1-{[3-(oxetan-3-yloxy)phenyl]methyl}-1H-1,2,4-triazol-3-yl)-3-[4-(trifluoromethoxy)phenyl]-1,2,4-oxadiazole]",< 100 nM
20,"Cc1nc(-c2nc(-c3ccc(OC(F)(F)F)cc3)no2)nn1Cc1cccc(C#N)c1 [Example 107, 3-((5-methyl-3-(3-(4-(trifluoromethoxy)phenyl)-1,2,4-oxadiazol-5-yl)-1H-1,2,4-triazol-1-yl)methyl)benzonitrile]",100 to 1000 nM
21,"COCCCNC(=O)c1cccc(Cn2nc(-c3nc(-c4ccc(OC(F)(F)F)cc4)no3)nc2C)c1 [Example 14, N-(3-methoxypropyl)-3-((5-methyl-3-(3-(4-(trifluoromethoxy)phenyl)-1,2,4-oxadiazol-5-yl)-1H-1,2,4-triazol-1-yl)methyl)benzamide]",< 100 nM
22,"COc1cc(Cn2nc(-c3nc(-c4ccc(OC(F)(F)F)cc4)no3)nc2C)ccn1 [Example 135, 2-methoxy-4-[(5-methyl-3-{3-[4-(trifluoromethoxy)phenyl]-1,2,4-oxadiazol-5-yl}-1H-1,2,4-triazol-1-yl)methyl]pyridine]",100 to 1000 nM
23,"Cc1nc(-c2cc(-c3ccc(OC(F)(F)F)cc3)no2)nn1Cc1ccnc(N2CCC(S(C)(=O)=O)CC2)c1 [Example 95, 5-(5-Methyl-1-((2-(4-(methylsulfonyl)piperidin-1-yl)pyridin-4-yl)methyl)-1H-1,2,4-triazol-3-yl)-3-(4-(trifluoromethoxy)phenyl)isoxazole]",< 100 nM
24,"Cc1nc(-c2nc(-c3ccc(OC(F)(F)F)cc3)no2)nn1Cc1cccc(C(=O)N(C)C)c1 [Example 40, N,N-Dimethyl-3-((5-methyl-3-(3-(4-(trifluoromethoxy)phenyl)-1,2,4-oxadiazol-5-yl)-1H-1,2,4-triazol-1-yl)methyl)benzamide]",< 100 nM
25,"Cc1nc(-c2ncc(-c3ccc(OC(F)(F)F)cc3)o2)nn1Cc1cccc(N2CCN(C)CC2)c1 [Example 152, 1-methyl-4-{3-[(5-methyl-3-{5-[4-(trifluoromethoxy)phenyl]-1,3-oxazol-2-yl}-1H-1,2,4-triazol-1-yl)methyl]phenyl}piperazine]",< 100 nM
26,"Cc1nc(-c2nc(-c3ccc(OC(F)(F)F)cc3)no2)nn1Cc1cccc(C(=O)NC2CC2)c1 [Example 124, N-cyclopropyl-3-[(5-methyl-3-{3-[4-(trifluoromethoxy]phenyl]-1,2,4-oxadiazol-5-yl}-1H-1,2,4-triazol-1-yl)methyl]benzamide]",< 100 nM
27,"Cc1nc(-c2nc(-c3ccc(OC(F)(F)F)cc3)no2)nn1Cc1cccc(OCCO)c1 [Example 65, 2-{3-[(5-Methyl-3-{3-[4-(trifluoromethoxy)phenyl]-1,2,4-oxadiazol-5-yl}-1H-1,2,4-triazol-1-yl)methyl]phenoxy}ethan-1-ol]",< 100 nM
28,"Cc1nc(-c2nc(-c3ccc(OC(F)(F)F)cc3)cs2)nn1Cc1cccc(OCCO)c1 [Example 91, 2-{3-[(5-Methyl-3-{4-[4-(trifluoromethoxy)phenyl]-1,3-thiazol-2-yl}-1H-1,2,4-triazol-1-yl)methyl]phenoxy}ethan-1-ol]",100 to 1000 nM
